Test results from US20100292216A1, “Methods and Compositions for the Treatment of Psychiatric Conditions” (ADAMAS PHARMACEUTICALS, INC., priority 2004, published 2010).
Entries after “also recorded” stand apart in the source; their conditions may differ. Like-named read-outs stand apart in the source and are kept apart here.

How the values were obtained:
[1] = cited from earlier work; for Human PK T 1/2 / Tmax: parent drug
[2] = humans; cited from earlier work
[3] = IR administration; memantine 10 mg bid, duloxetine 60 mg qd; cited from earlier work
[4] = test system: depression model (forced swim test (FST)); experiment: Dose ranging study in depression model (forced swim test); assay type: in vivo
From the text: An isobolic experiment ensues where the drugs are combined in fractions of their EDXXs to add up to ED100 (i.e., ED50:ED50, ED25:ED75, etc.). The plot of the data is constructed. The experiment points that lie below the straight line between the ED50 points on the graph are indicative of synergy, points on the line are indicative of additive effects, and points above the line are indicative of inhibitory effects. The point of maximum deviation from the isobolic line is the optimal ratio. […] Similar protocols may be applied in a wide variety of validated animal models.

Row | SMILES | Human PK T 1/2 ([1]; humans) [h] | Tmax ([1]; humans) [h] | Main Dose Dependent Adverse Event [2] | Tmax [3] [h] | T½ [3] [h] | Human PK T 1/2 (hrs) for ODV ([1]; humans, ODV) [h] | Tmax (hrs) for ODV ([1]; humans, ODV) [h] | Dose Dependent Tox [2] | ED50 [4] | T½ ([1]; head of release table, Example 3)
1 | O=C1CC2(CCCC2)CC(=O)N1CCCCN1CCN(c2ncccn2)CC1 [BUSPAR/Buspirone, buspirone] | 7 | 1 | Drowsiness, dizziness |  |  |  |  |  |  | 
2 | CNCC[C@H](Oc1cccc2ccccc12)c1cccs1 [CYMBALTA/Duloxetine, duloxetine] | 12 | 6 | Dizziness | 6 | 12 |  |  |  |  | 
3 | COc1ccc(C(CN(C)C)C2(O)CCCCC2)cc1 (stereo not shown) [EFFEXOR/Venlafaxine, venlafaxine] | 5 | 2 | nausea, constipation,; also recorded: anorexia, vomiting,; also recorded: somnolence, |  |  | 11 | 3 |  |  | 
4 | CN(C)CCC[C@@]1(c2ccc(F)cc2)OCc2cc(C#N)ccc21 [LEXAPRO/Escitalopram, escitalopram] |  | 5 | Sexual dys |  |  |  |  |  |  | 
5 | CC12CC3CC(C)(C1)CC(N)(C3)C2 [Memantine, 1-amino-3,5-dimethyladamantane] |  |  |  | 3 |  |  |  | required, hallucination | approximately 15 μM | 
6 | CNCCCN1c2ccccc2CCc2ccccc21 [NORPRAMIN/Desipramine, desipramine] | 22 | 3 to 6 | Hypotension, urinary; also recorded: retention, QTC |  |  |  |  |  |  | 
7 | Fc1ccc([C@@H]2CCNC[C@H]2COc2ccc3c(c2)OCO3)cc1 [PAXIL/Paroxetine, paroxetine] | 21 | 5 | Sexual dys |  |  |  |  |  |  | T½ = 21 hrs
8 | CC(NC(C)(C)C)C(=O)c1cccc(Cl)c1 (stereo not shown) [WELLBUTRIN/Bupropion, bupropion] | 14 | 2 | Anorexia, constipation,; also recorded: seizures (Bold Warning) |  |  |  |  |  |  | 
